According to patent US9181273B2, “Morpholine-spirocyclic piperidine amides as modulators of ion channels” (Vertex Pharmaceuticals Incorporated, priority 2011, dated 2015):

These compounds were tested against human NaV subtype, like NaV 1.7 (Homo sapiens, UniProt Q15858) (assay: E-VIPR optical membrane potential assay with electrical stimulation). Conditions: active against one or more sodium channels; assay and NaV subtype not specified for Table 3; read-out: IC50 Binned Activity Data.
Sequence of human NaV subtype, like NaV 1.7 (Q15858 whole entry): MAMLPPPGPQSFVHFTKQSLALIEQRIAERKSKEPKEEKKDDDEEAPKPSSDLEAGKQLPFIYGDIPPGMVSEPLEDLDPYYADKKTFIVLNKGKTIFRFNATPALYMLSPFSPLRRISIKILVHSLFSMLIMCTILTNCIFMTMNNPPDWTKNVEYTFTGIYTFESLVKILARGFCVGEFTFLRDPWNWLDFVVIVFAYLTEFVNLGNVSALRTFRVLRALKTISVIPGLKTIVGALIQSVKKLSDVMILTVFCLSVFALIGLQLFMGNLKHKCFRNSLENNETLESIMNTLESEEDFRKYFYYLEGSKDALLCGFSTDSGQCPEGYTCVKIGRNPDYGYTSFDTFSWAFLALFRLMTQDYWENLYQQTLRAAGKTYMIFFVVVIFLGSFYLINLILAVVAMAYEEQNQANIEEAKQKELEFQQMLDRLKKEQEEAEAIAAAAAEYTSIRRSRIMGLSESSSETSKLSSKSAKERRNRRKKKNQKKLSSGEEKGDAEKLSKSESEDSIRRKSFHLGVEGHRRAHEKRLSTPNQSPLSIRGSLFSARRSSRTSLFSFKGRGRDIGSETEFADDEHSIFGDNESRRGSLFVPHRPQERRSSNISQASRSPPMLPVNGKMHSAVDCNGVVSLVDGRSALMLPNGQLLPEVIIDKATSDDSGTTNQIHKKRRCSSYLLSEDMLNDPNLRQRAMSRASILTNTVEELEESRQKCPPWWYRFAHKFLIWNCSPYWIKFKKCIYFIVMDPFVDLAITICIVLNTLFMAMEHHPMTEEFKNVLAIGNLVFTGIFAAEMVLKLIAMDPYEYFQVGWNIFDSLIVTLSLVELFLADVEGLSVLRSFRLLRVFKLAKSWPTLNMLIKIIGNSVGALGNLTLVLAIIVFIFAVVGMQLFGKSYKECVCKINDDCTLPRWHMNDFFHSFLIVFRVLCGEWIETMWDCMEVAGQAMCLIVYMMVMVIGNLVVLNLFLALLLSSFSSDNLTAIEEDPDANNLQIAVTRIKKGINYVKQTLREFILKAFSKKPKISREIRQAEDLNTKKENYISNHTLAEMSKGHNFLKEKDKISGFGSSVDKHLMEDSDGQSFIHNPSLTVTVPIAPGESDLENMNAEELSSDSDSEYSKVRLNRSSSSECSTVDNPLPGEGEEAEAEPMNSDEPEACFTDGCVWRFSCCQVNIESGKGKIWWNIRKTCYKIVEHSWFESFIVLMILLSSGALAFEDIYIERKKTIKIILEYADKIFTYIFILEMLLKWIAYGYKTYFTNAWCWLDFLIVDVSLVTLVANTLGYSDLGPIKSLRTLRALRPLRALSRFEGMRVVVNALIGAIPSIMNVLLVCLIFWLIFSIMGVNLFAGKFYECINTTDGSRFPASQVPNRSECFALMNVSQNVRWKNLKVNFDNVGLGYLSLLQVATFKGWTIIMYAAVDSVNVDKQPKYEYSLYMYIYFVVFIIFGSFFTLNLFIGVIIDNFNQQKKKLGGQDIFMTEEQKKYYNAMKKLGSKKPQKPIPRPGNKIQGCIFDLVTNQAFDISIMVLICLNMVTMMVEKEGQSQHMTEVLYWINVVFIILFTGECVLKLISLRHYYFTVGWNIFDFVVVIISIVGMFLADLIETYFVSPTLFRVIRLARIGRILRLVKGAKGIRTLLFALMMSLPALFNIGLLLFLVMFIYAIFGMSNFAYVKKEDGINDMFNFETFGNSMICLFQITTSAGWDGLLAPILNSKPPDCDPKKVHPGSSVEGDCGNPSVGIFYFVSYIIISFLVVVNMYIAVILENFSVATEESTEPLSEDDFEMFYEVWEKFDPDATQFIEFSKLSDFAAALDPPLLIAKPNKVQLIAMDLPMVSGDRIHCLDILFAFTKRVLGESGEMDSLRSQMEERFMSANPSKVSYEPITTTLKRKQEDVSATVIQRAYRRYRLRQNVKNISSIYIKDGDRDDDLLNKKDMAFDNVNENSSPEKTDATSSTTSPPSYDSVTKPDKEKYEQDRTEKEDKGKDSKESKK
Format: cell-based
Text: Sodium channels are voltage-dependent proteins that can be activated by inducing membrane voltage changes by applying electric fields. […] The instrument comprises a microtiter plate handler, an optical system for exciting the coumarin dye while simultaneously recording the coumarin and oxonol emissions, a waveform generator, a current- or voltage-controlled amplifier, and a device for inserting electrodes in well. Under integrated computer control, this instrument passes user-programmed electrical stimulus protocols to cells within the wells of the microtiter plate.
24 hours before the assay on E-VIPR, HEK cells expressing human NaV subtype, like NaV 1.7, are seeded in 384-well poly-lysine coated plates at 15,000-20,000 cells per well. Other subtypes are performed in an analogous mode in a cell line expressing the NaV of interest. […] Cells are grown in vented cap flasks, in 90% humidity and 10% CO2, to 100% confluence. They are usually split by trypsinization 1:10 or 1:20, depending on scheduling needs, and grown for 2-3 days before the next split.
To make the solution Add volume of 10% Pluronic F127 stock equal to volumes of CC2-DMPE+DiSBAC6(3). The order of preparation is first mix Pluronic and CC2-DMPE, then add DiSBAC6(3) while vortexing, then add Bath1+β-Cyclodextrin.
1) Pre-spot compounds (in neat DMSO) into compound plates. […] Final compound plate volume will be 80 μL (80-fold intermediate dilution from 1 μL DMSO spot; 160-fold final dilution after transfer to cell plate).
2) Prepare Hexyl Dye Solution.
3) Prepare cell plates. On the day of the assay, medium is aspirated and cells are washed three times with 100 μL of Bath1 Solution, maintaining 25 μL residual volume in each well.
4) Dispense 25 μL per well of Hexyl Dye Solution into cell plates. Incubate for 20-35 minutes at room temp or ambient conditions.
5) Dispense 80 μL per well of Bath1 into compound plates. Acid Yellow-17 (1 mM) is added and Potassium Chloride can be altered from 4.5 to 20 mM depending on the NaV subtype and assay sensitivity.
6) Wash cell plates three times with 100 μL per well of Bath1, leaving 25 μL of residual volume. Then transfer 25 uL per well from Compound Plates to Cell Plates. Incubate for 20-35 minutes at room temp/ambient condition
7) Read Plate on E-VIPR. Use the current-controlled amplifier to deliver stimulation wave pulses for typically 9 seconds and a scan rate of 400 Hz. A pre-stimulus recording is performed for 0.5 seconds to obtain the un-stimulated intensities baseline. The stimulatory waveform is applied for 9 seconds followed by 0.5 seconds of post-stimulation recording to examine the relaxation to the resting state. The stimulatory waveform of the electrical stimulation is specific for each cell type and can vary the magnitude, duration and frequency of the applied current to provide an optimal assay signal.
Data are analyzed and reported as normalized ratios of background-subtracted emission intensities measured in the 460 nm and 580 nm channels. Background intensities are then subtracted from each assay channel. Background intensities are obtained by measuring the emission intensities during the same time periods from identically treated assay wells in which there are no cells. The response as a function of time is then reported as the ratios obtained using the following formula: […]
The data is further reduced by calculating the initial (Ri) and final (Rf) ratios. These are the average ratio values during part or all of the pre-stimulation period, and during sample points during the stimulation period. The response to the stimulus R=Rf/Ri is then calculated and reported as a function of time.
Control responses are obtained by performing assays in the presence of a compound with the desired properties (positive control), such as tetracaine, and in the absence of pharmacological agents (negative control). Responses to the negative (N) and positive (P) controls are calculated as above. The compound antagonist activity A is defined as: […]
In the case of `CC(C)Oc1ccc(C(=O)N2CCC3(CC2)CN(CC(F)(F)F)CC(c2ccccc2)O3)cc1` (stereo not drawn) [Compound 119], the IC50 is reported as less than 2 µM.
`COCC1CN(c2ncccn2)CC2(CCN(C(=O)c3ccc(OC(C)C)c(C)c3)CC2)O1` (stereo not drawn) [Compound 120] was tested, and the IC50 was less than 2 µM.
Compound `COCC1CN(C2CCN(C(C)=O)CC2)CC2(CCN(C(=O)c3ccc(OC(C)C)c(C)c3)CC2)O1` (stereo not drawn) [Compound 121] has an IC50 greater than 5 µM.
`Cc1cc(C(=O)N2CCC3(CC2)CN(CC(F)F)CC(c2ccc(Cl)cc2)O3)ccc1OC(C)C` (stereo not drawn) [Compound 122] was tested, and the IC50 was greater than 5 µM.
With `Cc1cc(C(=O)N2CCC3(CC2)CN(CC(F)(F)F)[C@H](C)[C@@H](c2ccccc2)O3)ccc1OC(C)C` [Compound 123] the IC50 was 2 to 5 µM.
For `COCC1CN(c2ccc(C(F)(F)F)cc2)CC2(CCN(C(=O)c3ccc(OC(C)C)c(C)c3)CC2)O1` (stereo not drawn) [Compound 124], the IC50 was less than 2 µM.
`COCCOc1ccc(C(=O)N2CCC3(CC2)CN(c2ncccn2)CC(COC)O3)cc1OC` (stereo not drawn) [Compound 125] was tested, and the IC50 was greater than 5 µM.
Work on `COCC1CN(c2cc(OC)ccn2)CC2(CCN(C(=O)c3ccc(OC(C)C)c(C)c3)CC2)O1` (stereo not drawn) [Compound 126] yielded an IC50 of less than 2 µM.
With `Cc1cc(C(=O)N2CCC3(CC2)CN(CC(F)(F)F)CC(C(C)(C)O)O3)ccc1OC(C)C` (stereo not drawn) [Compound 127] the IC50 was 2 to 5 µM.
`COc1cc(C(=O)N2CCC3(CC2)CN(CC(F)(F)F)CC(c2ccccc2)O3)ccc1OC(C)(C)C` (stereo not drawn) [Compound 128] was tested, and the IC50 was less than 2 µM.
For `CC#CCN1CC(CC)OC2(CCN(C(=O)c3ccc(C(C)(C)C)c(OC)c3)CC2)C1` (stereo not drawn) [Compound 129], the IC50 was less than 2 µM.
Work on `CCC1CN(c2ncccn2)CC2(CCN(C(=O)c3ccc(C4=CCCC4)c(F)c3)CC2)O1` (stereo not drawn) [Compound 130] yielded an IC50 greater than 5 µM.
`COCC1CN(C2CCSCC2)CC2(CCN(C(=O)c3ccc(OC(C)C)c(C)c3)CC2)O1` (stereo not drawn) [Compound 131] gave an IC50 of less than 2 µM.
`COCC1CN(Cc2cc(C)on2)CC2(CCN(C(=O)c3ccc(OC(C)C)c(C)c3)CC2)O1` (stereo not drawn) [Compound 132] gave an IC50 of 2 to 5 µM.
Compound `CC(C)(O)Cc1ccc(C(=O)N2CCC3(CC2)CN(CC(F)(F)F)CC(c2ccccc2)O3)cc1` (stereo not drawn) [Compound 133] has an IC50 of less than 2 µM.
`COCC1CN(CC2CCOCC2)CC2(CCN(C(=O)c3ccc(OC(C)C)c(C)c3)CC2)O1` (stereo not drawn) [Compound 134] was tested, and the IC50 was greater than 5 µM.
In the case of `CC(C)Oc1ccc(C(=O)N2CCC3(CC2)CN(CC(F)(F)F)CC(c2ccccc2)O3)c(F)c1` (stereo not drawn) [Compound 135], the IC50 is reported as less than 2 µM.
With `COCC1CN(c2ncccn2)CC2(CCN(C(=O)c3ccc(OC(C)C)cc3)CC2)O1` (stereo not drawn) [Compound 136] the IC50 was 2 to 5 µM.
Compound `CC(C)Oc1ccc(C(=O)N2CCC3(CC2)CN(CC(F)F)CC(c2ncc(C(C)(C)C)o2)O3)cc1F` (stereo not drawn) [Compound 137] has an IC50 of less than 2 µM.
In the case of `Cc1cc(C(=O)N2CCC3(CC2)CN(CC(F)(F)F)CC(c2ccccc2)O3)ccc1OCC(C)(C)O` (stereo not drawn) [Compound 138], the IC50 is reported as less than 2 µM.
With `CC#CCN1CC(CF)OC2(CCN(C(=O)c3ccc(OC(C)C)c(C)c3)CC2)C1` (stereo not drawn) [Compound 139] the IC50 was greater than 5 µM.
`COCC1CN(c2ccccn2)CC2(CCN(C(=O)c3ccc(OC(C)C)c(C)c3)CC2)O1` (stereo not drawn) [Compound 140] was tested, and the IC50 was less than 2 µM.
`CC#CCN1CC(CC)OC2(CCN(C(=O)c3ccc(OC)c(C)c3)CC2)C1` (stereo not drawn) [Compound 141] gave an IC50 greater than 5 µM.
`CCC1CN(Cc2ccccc2)CC2(CCN(C(=O)c3ccc(OC(C)C)c(C)c3)CC2)O1` (stereo not drawn) [Compound 142] was tested, and the IC50 was greater than 5 µM.
With `COCCOc1ccc(C(=O)N2CCC3(CC2)CN(CC(F)(F)F)CC(c2ccccc2)O3)cc1OC` (stereo not drawn) [Compound 143] the IC50 was less than 2 µM.
Work on `COc1cccc(C(=O)N2CCC3(CC2)CN(CC(F)F)CC(c2ccccc2)O3)n1` (stereo not drawn) [Compound 144] yielded an IC50 of 2 to 5 µM.
In the case of `CCOc1ccc(C(=O)N2CCC3(CC2)CN(CC)CC(c2ccccc2)O3)cc1CO` (stereo not drawn) [Compound 145], the IC50 is reported as greater than 5 µM.
`Cc1cc(C(=O)N2CCC3(CC2)CN(CC(F)(F)F)CC(CCO)O3)ccc1OC(C)C` (stereo not drawn) [Compound 146] gave an IC50 of 2 to 5 µM.
`COCC1CN(CCC(C)C)CC2(CCN(C(=O)c3ccc(OC(C)C)c(C)c3)CC2)O1` (stereo not drawn) [Compound 147] showed an IC50 of less than 2 µM.
With `Cc1noc(C2CN(Cc3ccccc3)CC3(CCN(C(=O)c4ccc(OC(C)C)c(C)c4)CC3)O2)n1` (stereo not drawn) [Compound 148] the IC50 was 2 to 5 µM.
`Cc1noc(C2CN(CC(F)(F)F)CC3(CCN(C(=O)c4ccc(OC(C)C)c(C)c4)CC3)O2)n1` (stereo not drawn) [Compound 149] showed an IC50 of 2 to 5 µM.
Work on `Cc1cc(C(=O)N2CCC3(CC2)CN(CC(F)F)CC(c2[nH]ncc2C)O3)ccc1OC(C)C` (stereo not drawn) [Compound 150] yielded an IC50 of less than 2 µM.
`O=C(c1ccc(C2(O)COC2)cc1)N1CCC2(CC1)CN(CC(F)(F)F)CC(c1ccccc1)O2` (stereo not drawn) [Compound 151] was tested, and the IC50 was greater than 5 µM.
Compound `COc1cc(C(=O)N2CCC3(CC2)CN(CC(F)(F)F)CC(c2ncc(C)s2)O3)ccc1OC(C)C` (stereo not drawn) [Compound 152] has an IC50 of less than 2 µM.
`Cc1cc(C(=O)N2CCC3(CC2)CN(CC(F)F)CC(c2ccccc2)O3)ccc1OC(C)C` (stereo not drawn) [Compound 153] was tested, and the IC50 was less than 2 µM.
With `CC#CCN1CC(F)(F)OC2(CCN(C(=O)c3ccc(OC(C)C)c(C)c3)CC2)C1` [Compound 154] the IC50 was greater than 5 µM.
For `O=C(c1cccc(Cl)c1)N1CCC2(CC1)CN(CC(F)(F)F)CC(c1ccccc1)O2` (stereo not drawn) [Compound 155], the IC50 was greater than 5 µM.
Compound `CC(C)Oc1ccc(C(=O)N2CCC3(CC2)CN(CC(F)F)CC(c2ccc(F)cc2)O3)cc1Cl` (stereo not drawn) [Compound 156] has an IC50 of less than 2 µM.
`Cc1nc(C(=O)N2CCC3(CC2)CN(CC(F)F)CC(c2ccccc2)O3)ccc1C#N` (stereo not drawn) [Compound 157] showed an IC50 greater than 5 µM.
For `CCN1CC(c2ccccc2)OC2(CCN(C(=O)c3ccc(C(C)(C)O)cc3)CC2)C1` (stereo not drawn) [Compound 158], the IC50 was greater than 5 µM.
`CC(C)Oc1ccc(C(=O)N2CCC3(CC2)CN(CC(F)F)CC(c2ncc(C(C)C)o2)O3)cc1F` (stereo not drawn) [Compound 159] was tested, and the IC50 was greater than 5 µM.
`COCC1CN(C(C)(C)C)CC2(CCN(C(=O)c3ccc(OC(C)C)c(C)c3)CC2)O1` (stereo not drawn) [Compound 160] gave an IC50 of 2 to 5 µM.
In the case of `COCC1CN(c2ncccn2)CC2(CCN(C(=O)c3ccc(C(C)(C)O)cc3)CC2)O1` (stereo not drawn) [Compound 161], the IC50 is reported as greater than 5 µM.
`COc1cc(C(=O)N2CCC3(CC2)CN(CC(F)F)CC(c2cccc(C)n2)O3)cc(F)c1OC(C)C` (stereo not drawn) [Compound 162] showed an IC50 greater than 5 µM.
`Cc1cc(C(=O)N2CCC3(CC2)CNCC(c2ccccc2)O3)ccc1OC(C)C` (stereo not drawn) [Compound 163] gave an IC50 greater than 5 µM.
`COCC1CN(c2ncccn2)CC2(CCN(C(=O)c3ccccc3OC(F)F)CC2)O1` (stereo not drawn) [Compound 164] gave an IC50 greater than 5 µM.
In the case of `CC(C)CS(=O)(=O)c1ccc(C(=O)N2CCC3(CC2)CN(CC(F)(F)F)CC(c2ccccc2)O3)cc1` (stereo not drawn) [Compound 165], the IC50 is reported as less than 2 µM.
With `CCN1CC(c2ccccc2)OC2(CCN(C(=O)c3ccc(OC(C)C)c(CO)c3)CC2)C1` (stereo not drawn) [Compound 166] the IC50 was 2 to 5 µM.
`CCN1CC(c2ccccc2)OC2(CCN(C(=O)c3ccc(S(=O)(=O)NC4CC4)cc3)CC2)C1` (stereo not drawn) [Compound 167] was tested, and the IC50 was greater than 5 µM.
In the case of `Cc1cc(C(=O)N2CCC3(CC2)CN(CC(F)F)CC(c2ccccc2)O3)ccc1C(C)(C)O` (stereo not drawn) [Compound 168], the IC50 is reported as less than 2 µM.
`COCC1CN(Cc2ccccc2)CC2(CCN(C(=O)c3ccc(OC(C)C)c(C)c3)CC2)O1` (stereo not drawn) [Compound 169] showed an IC50 of less than 2 µM.
`Cc1cc(C(=O)N2CCC3(CC2)CN(CC(F)F)CC(c2ccc(F)cc2)O3)ccc1OCC(C)(C)O` (stereo not drawn) [Compound 170] gave an IC50 of less than 2 µM.
For `Cc1cc(C(=O)N2CCC3(CC2)CN(c2ncccn2)CC(COC(F)F)O3)ccc1OC(C)C` (stereo not drawn) [Compound 171], the IC50 was less than 2 µM.
With `COc1cc(C(=O)N2CCC3(CC2)CN(CC(F)(F)F)CC(c2ccccc2)O3)ccc1S(C)(=O)=O` (stereo not drawn) [Compound 172] the IC50 was greater than 5 µM.
`COCC1CN(c2ncccn2)CC2(CCN(C(=O)c3ccc(OC(C)C)c(OC)c3)CC2)O1` (stereo not drawn) [Compound 173] gave an IC50 of 2 to 5 µM.
Compound `COCCCN1CC(COC)OC2(CCN(C(=O)c3ccc(OC(C)C)c(C)c3)CC2)C1` (stereo not drawn) [Compound 175] has an IC50 of less than 2 µM.
For `CCC1CN(c2ccccn2)CC2(CCN(C(=O)c3ccc(C4(O)CCC4)c(C)c3)CC2)O1` (stereo not drawn) [Compound 176], the IC50 was less than 2 µM.
